Columns and labels:
Format in all cases: cell-based, human
[1] = system: vimentin in MDA-MB-231 VIM RFP cells; assay: Flow cytometric quantification of vimentin (VIM RFP reporter); conditions: 72 h
Procedure: Quantification of vimentin expression after the treatment of MDA-MB-231 VIM RFP cells with tested compounds was determined with flow cytometry. MDA-MB-231 VIM RFP cells were seeded at the density of 1 × 10^4 cells/well and incubated overnight. […] After 72 h of incubation, cells were trypsinized and analyzed on a flow cytometer Cell Stream (Luminex, USA). The data were processed using Cell Stream analysis software or FCS Express 7 (DeNovo Software, CA). The fluorescence coming from the VIM RFP tag is proportional to the expression of vimentin in treated cells. Each sample analyzed by flow cytometry consisted of at least 30,000 events.

MDA-MB-231 VIM RFP cells [2] = assay: Morphology of the vimentin intermediate filament network by confocal microscopy; conditions: 24 h, IC50,72h
Procedure: MDA-MB-231 VIM RFP cells were seeded on 35 mm confocal Petri dishes (Mattek) at the density of 2.5 × 10^5 cells per dish and incubated overnight. […] Then, samples were washed with PBS, fixed with 3.7% formaldehyde (10 min, RT), and mounted with ProLong Diamond Antifade Mountant with DAPI. Samples were visualized with a confocal microscope Leica SP8 SMD operated under the deconvolution lightning mode.

E-Cadherin = assay: RT-qPCR of EMT-related gene transcripts; conditions: MDA-MB-231, 24 h, IC50,72h
Procedure: (§1) MDA-MB-231 cells were seeded on a six-well plate at the density of 0.5 × 10^6 cells per well and incubated overnight. […] Cells were harvested, and total RNA was isolated using NucleoSpin RNA columns (Machery Nagel, GE). One-step qPCR combining reverse transcription followed by amplification thermal cycling was applied using a Luna Universal One-Step RT-qPCR (New England BioLabs, MA, USA). Experiments were performed on an Illumina Eco Real-Time PCR (Illumina, CA, USA). The thermal profile was as follows: reverse transcription for 10 min at 55 °C and initial denaturation for 1 min at 95 °C, followed by 43 thermal cycles of denaturation for 10 s at 95 °C and extension for 30 s at 60 °C. Primer sequences were as follows: Β-actin-F: […]; Β-actin-R: […]; Vim-F: […]; Vim-R: […]; E-Cadherin-F: […]; E-Cadherin-R: […]; N-Cadherin-F: […]; N-Cadherin-R: […]; B-Catenin-F: […]; B-Catenin-R: […]; SNAI1-F: […]; SNAI1-R: […]. Purified primers were from Generi Biotech (Czech Republic). All runs included melting curve analysis and template-free negative technical controls to confirm specific single-product amplification. Β-actin was used as an internal control. The relative expression of mRNA is represented as a fold increase (2^–ΔΔCt).[69]

B-catenin = assay: RT-qPCR of EMT-related gene transcripts; conditions: MDA-MB-231, 24 h, IC50,72h
Procedure: as §1

SNAI1 = assay: RT-qPCR of EMT-related gene transcripts; conditions: MDA-MB-231, 24 h, IC50,72h
Procedure: as §1

N-Cadherin = assay: RT-qPCR of EMT-related gene transcripts; conditions: MDA-MB-231, 24 h, IC50,72h
Procedure: as §1

Vimentin = assay: RT-qPCR of EMT-related gene transcripts; conditions: MDA-MB-231, 24 h, IC50,72h
Procedure: as §1

MCF-10A cells = assay: Antiproliferative activity, sulforhodamine B (SRB) assay, non-malignant cells
Procedure: The antiproliferative activity of the investigated compounds was evaluated using the SRB assay. The cells were seeded in 96-well tissue culture plates at a density of 3 × 10^3 cells/well in 100 μL of the medium. After overnight incubation in a humidified CO2 incubator, the cells were treated with the tested compounds in a final volume of 200 μL/well. After an additional 72 h, cells were washed with PBS and fixed for 1 h at 4 °C with trichloroacetic acid. Then, the cells were stained with 0.4% SRB dye for 30 min. Stained cells were dissolved with Tris (10 mM). The cell viability was evaluated by measurement of the absorbance at 570 nm using an absorbance reader (SPARK TECAN, SCHOELLER). The reading values were converted to the percentage of control (% cell survival). Antiproliferative effects were expressed as IC50 values calculated from curves constructed by plotting cell survival (%) versus drug concentration (μM) (IC50 = concentration of the agent inhibiting cell growth by 50%). Concentrations of compounds present in the medium during the treatment were verified by FAAS or ICP-MS.

MDA-MB-231 cells = assay: Anti-invasion activity, real-time monitoring (xCELLigence RTCA CIM plate); conditions: cells treated with IC50,72h for 24 h before seeding; monitored 7 days; untreated control 21 h
Procedure: The anti-invasive effects of the investigated Ir complexes in real time were assessed by the xCELLigence DP instrument with the migration RTCA CIM plate 16.[48] This system is based on the principle of the Boyden chamber that allows real-time monitoring of the number of invading cells. When cells migrate from the upper to lower wells through the microporous membrane with integrated microelectrodes, they contact and adhere to the microelectrodes affecting the impedance. The output of the experiment performed with this system is the dimensionless cell index (CI); when the cells invade, the CI increases. Moreover, it is possible to analyze the time from cell seeding to the time when invasion through the membrane matrix for each sample treated with tested compounds started (tinv). This period is determined by the intersection of the curve corresponding to the particular time-dependent cell response profile (TCRP) with the straight line corresponding to the threshold value (CI = 0). […] The invasion process was monitored for 7 days to determine whether cell death occurred during the subsequent time after the invasion was observed.
Anti-invasion activity was monitored by the xCELLigence system (Roche). […] Samples were continuously monitored every 5 min for an additional 7 days. […]

MDA-MB-231 VIM RFP cells [3] = assay: Wound healing assay
Procedure: MDA-MB-231 VIM RFP cells were seeded on 35 mm confocal Petri dishes (Mattek) at the density of 3 × 10^5 cells/dish and incubated overnight or for a further 24–48 h to reach approximately 70% confluency. Defined scratch (220 μm width) was done under continuous suction with the pipette tip. Cells were washed, and the medium was replaced with the culture medium supplemented with tested compounds, applied at the equitoxic concentration (IC50,72h). Samples were incubated for an additional 24 h before fixation with 3.7% formaldehyde (10 min, RT) and mounted with ProLong Diamond Antifade Mountant (LifeSciences, Thermo Fisher Scientific). Samples were visualized with a confocal microscope Leica SP8 SMD operated under the deconvolution lightning mode. Images were analyzed by using ImageJ software. The scratch boundaries were identified with the MRI wound healing tool ImageJ plugin or identified manually.

[4] = system: spheroids generated from MDA-MB-231 cells; assay: Morphological quantification of 3D tumor spheroids and cell-invasive potential; conditions: for protrusion occurrence (length): control 32 μm
Excerpt: The cancer cell transition from proliferation to invasion is usually initiated by nutrient stress and unfavorable conditions caused by the progressive growth of the primary tumor.[63] To study the dynamics of cells to evade the primary tumor, we monitored the morphology of spheroids generated from MDA-MB-231 cells embedded in an agar matrix.[64] Multicellular tumor spheroids represent the most used 3D in vitro model[65] and offer the opportunity to study the invasive potential of cancer cells under conditions much closer to the in vivo situation than when the traditional Transwell assay is used.[64] Morphological parameters were utilized to evaluate the invasive potential of spheroids generated from MDA-MB-231 cells.[66] Spheroid perimeter is the most useful morphological parameter for quantifying overall proliferation, whereas roundness, shape integrity, and quantification of protrusion occurrence are the morphological parameters related to the invasion potential.[64],[66] At the most compact stage, cells on the surface follow the contour of the spheroid. This morphology resembles the proliferating but not invading character of the spheroid, whereas diffuse and rough borders are the signs of the invasive character of peripheral cells. Assessment of the spheroid circularity (roundness) was analyzed by the automated edge detection and measurement of the enclosed area. A circularity equal to one indicates a perfectly circular spheroid, whereas lower values indicate a loss of circularity. The solidity is an indicator of the regularity of the spheroids’ surface or its roughness and thus can be considered the indicator of the primary protrusions and the overall regularity of the spheroid.[66]
MDA-MB-231 cells were seeded in a sandwich agar matrix (0.5% bottom gel and 0.35% upper cell-containing gel). First, wells of 24-well plates were covered with 0.5% agar gel, and then MDA-MB-231 cells were resuspended in 0.35% agar matrix. The detailed protocol was as follows: Stock solution of agar gel was prepared by autoclaving 1 g of agar in 100 mL of PBS for at least a 20 min liquid cycle. Twenty-four-well plates were covered with 1 mL of 0.5% agar created by mixing 1% agar solution with cultivation media in 1:1 ratio. The dish was then layered with 1 mL of 0.35% agar composed of 0.35 mL of 1% agar and 0.65 mL of cultivation media containing 10^5 MDA-MB-231 cells. After gel solidification, the dish was covered with 2 mL of cultivation media. Mixing of agar solution and media was carried out after the agar solution cooled to approximately 40 °C to prevent damage by high temperature. Cells were cultured for an additional 7 days to establish spheroid structures, then treated with tested compounds at the equitoxic concentration corresponding to IC50,72h, and cultured for an additional 72 h. Samples were photographed on a phase contrast microscope (Olympus CKX41), and images were processed and analyzed for morphology parameters in ImageJ software.

[5] = β-actin reference, untreated control as calibrator
[6] = one week-old spheroids, 72 h treatment at IC50,72h

COc1cccc2c1C(=O)c1c(O)c3c(c(O)c1C2=O)C[C@@](O)(C(=O)CO)C[C@@H]3O[C@H]1C[C@H](N)[C@H](O)[C@H](C)O1 [Dox, doxorubicin]
RFP fluorescence of VIM RFP reporter ([1]; 2-fold IC50,72h): somewhat suppressed the RFP fluorescence | vimentin expression ([1]; sub-toxic concentrations): considerably increased vimentin expression | morphology of vimentin intermediate filaments (MDA-MB-231 VIM RFP cells [2]): adopted a typical structure | effect on expression of E-cadherin (E-Cadherin): the expression of E-cadherin slightly decreased | relative mRNA expression E-Cadherin (2^–ΔΔCt) (E-Cadherin; [5]): 0.73 | upregulation of expression of β-catenin (B-catenin): ~3 fold | relative mRNA expression B-catenin (2^–ΔΔCt) (B-catenin; [5]): 2.86 | upregulation of expression of SNAI1 (SNAI1): ~2 fold | relative mRNA expression SNAI1 (2^–ΔΔCt) (SNAI1; [5]): 1.63 | upregulation of expression of N-cadherin (N-Cadherin): ~3 fold | relative mRNA expression N-Cadherin (2^–ΔΔCt) (N-Cadherin; [5]): 3.39 | effect on expression of vimentin (Vimentin): slightly upregulated also the expression of vimentin | relative mRNA expression Vimentin (2^–ΔΔCt) (Vimentin; [5]): 1.21 | IC50 (MCF-10A cells; Homo sapiens, MCF-10A, SRB assay, 72 h incubation, mean ± SD, non-cancerous cells): 8.6 ± 0.8 µM | SI, average selectivity index (MCF-10A cells; IC50 (MCF-10A)/average IC50 (MDA-MB-231 and MCF-7)): ~18 | tinv, period needed to invade through the matrix membrane (MDA-MB-231 cells): approximately 35 h | wound healing assay observation (MDA-MB-231 VIM RFP cells [3]; 24 h, IC50,72h): induced formation of the pseudopods | wound closure capacity (MDA-MB-231 VIM RFP cells [3]; 24 h after treatment with IC50,72h, untreated control 70%): 67% | mean perimeter of spheroids ([4]; 72 h treatment at IC50,72h, control 2.1 mm): about 2.8 mm | solidity ([4]; one week-old spheroids, 72 h at IC50,72h, control 3.0, Ir1 value affected by collapse of the spheroid structure): 6.3 | secondary protrusions (SP) [4, 6]: secondary protrusions were identified | circularity ([4]; one week-old spheroids, 72 h treatment at IC50,72h, control 0.96): 0.66 | protrusion occurrence (number) ([4]; one week-old spheroids, 72 h treatment at IC50,72h, control 4): 2 | protrusion occurrence (length) [4, 6]: 73 μm | protrusion occurrence (length) ([4]; one week-old spheroids, 72 h treatment at IC50,72h, listed as doxorubicin): up to 73 μm | perimeter ([4]; one week-old spheroids, 72 h treatment at IC50,72h, control 2120 ± 310): 2820 ± 506 μm

Source: publication PMC10388354, “Ir(III) Compounds Containing a Terdentate Ligand Are Potent Inhibitors of Proliferation and Effective Antimetastatic Agents in Aggressive Triple-Negative Breast Cancer Cells” (Journal of Medicinal Chemistry, 2023)
